# Test results: US8772505B2, “Antiviral compounds composed of three aligned aryl moieties to treat diseases such as hepatitis C” (Merck Sharp & Dohme Corp., priority 2009, dated 2014)
# System: HCV replicon
# Assay: Cell-based HCV replicon assay (EC90)
# Settings: Hepatitis C virus, 72 h; replicon RNA by real time PCR (Taqman), day 3; class symbols; read-out: Biological Activity (EC90, HCV replicon)
# Method: To measure cell-based anti-HCV activity of selected compounds of the present invention, replicon cells were seeded at 5000 cells/well in 96-well collagen I-coated Nunc plates in the presence of the test compound. Various concentrations of test compound, typically in 10 serial 2-fold dilutions, were added to the assay mixture, with the starting concentration ranging from 250 μM to 1 μM. The final concentration of DMSO was 0.5%, fetal bovine serum was 5%, in the assay media. Cells were harvested on day 3 by the addition of 1× cell lysis buffer (Ambion cat #8721). The replicon RNA level was measured using real time PCR (Taqman assay). The amplicon was located in 5B. The PCR primers were: 5B.2F, ATGGACAGGCGCCCTGA (SEQ. ID NO. 1); 5B.2R, […] (SEQ. ID NO. 2); the probe sequence was FAM-labeled CACGCCATGCGCTGCGG (SEQ. ID NO. 3). GAPDH RNA was used as endogenous control and was amplified in the same reaction as NS5B (multiplex PCR) using primers and VIC-labeled probe recommended by the manufacturer (PE Applied Biosystem). The real-time RT-PCR reactions were run on ABI PRISM 7900HT Sequence Detection System using the following program: 48° C. for 30 min, 95° C. for 10 min, 40 cycles of 95° C. for 15 sec, 60° C. for 1 min. The ACT values (CT5B-CTGAPDH) were plotted against the concentration of test compound and fitted to the sigmoid dose-response model using XLfit4 (MDL). EC50 was defined as the concentration of inhibitor necessary to achieve ΔCT=1 over the projected baseline; EC90 the concentration necessary to achieve ΔCT=3.2 over the baseline. Alternatively, to quantitate the absolute amount of replicon RNA, a standard curve was established by including serially diluted T7 transcripts of replicon RNA in the Taqman assay. All Taqman reagents were from PE Applied Biosystems. Such an assay procedure was described in detail in e.g. Malcolm et al., Antimicrobial Agents and Chemotherapy 50: 1013-1020 (2006).
# HCV replicon assay data was calculated for selected compounds of the present invention using this method.
row,Compound,EC90 [nM]
1,COC(=O)N[C@H](C(=O)N1CCC[C@H]1c1nc2ccc(-c3ccc(-c4ccc5nc([C@@H]6CCCN6C(=O)[C@@H](NC(=O)OC)C(C)C)[nH]c5c4)s3)cc2[nH]1)C(C)C [Compound 55],< 1
2,c1cc(-c2ccc3nc([C@@H]4CCCN4)[nH]c3c2)ncc1-c1ccc2nc([C@@H]3CCCN3)[nH]c2c1 [Compound 43],> 1000
3,CC(=O)N1CCC[C@H]1c1nc2ccc(-c3ccc(-c4ccc5nc([C@@H]6CCCN6C(C)=O)[nH]c5c4)nc3)cc2[nH]1 [Compound 42],> 1000
4,COC(=O)N[C@H](C(=O)N1CCC[C@H]1c1nc2ccc(-c3cc(-c4ccccc4)c(-c4ccc5nc([C@@H]6CCCN6C(=O)[C@@H](NC(=O)OC)C(C)C)[nH]c5c4)s3)cc2[nH]1)C(C)C [Compound 128],< 1
5,COC(=O)N[C@H](C(=O)N1CCC[C@H]1c1nc2cc(F)c(-c3cc(C)c(-c4cc5[nH]c([C@@H]6CCCN6C(=O)[C@@H](NC(=O)OC)C(C)C)nc5cc4F)s3)cc2[nH]1)C(C)C [Compound 119],< 1
6,CCCCc1cc(-c2ccc3nc([C@@H]4CCCN4C(=O)[C@@H](NC(=O)OC)C(C)C)[nH]c3c2)sc1-c1ccc2nc([C@@H]3CCCN3C(=O)[C@@H](NC(=O)OC)C(C)C)[nH]c2c1 [Compound 121],< 1
7,[2H]C([2H])([2H])C([2H])(C([2H])([2H])[2H])[C@]([2H])(NC(=O)OC)C(=O)N1C([2H])([2H])C([2H])([2H])C([2H])([2H])[C@]1([2H])c1nc2ccc(-c3ccc(-c4ccc5nc([C@]6([2H])N(C(=O)[C@@]([2H])(NC(=O)OC)C([2H])(C([2H])([2H])[2H])C([2H])([2H])[2H])C([2H])([2H])C([2H])([2H])C6([2H])[2H])[nH]c5c4)c(OC(F)(F)F)c3)cc2[nH]1 [Compound 135],< 1
8,[2H]C([2H])([2H])C([2H])(C([2H])([2H])[2H])[C@]([2H])(NC(=O)OC)C(=O)N1CCC[C@H]1c1nc2ccc(-c3ccc(-c4ccc5nc([C@@H]6CCCN6C(=O)[C@@]([2H])(NC(=O)OC)C([2H])(C([2H])([2H])[2H])C([2H])([2H])[2H])[nH]c5c4)c(OC(F)(F)F)c3)cc2[nH]1 [Compound 134],< 1
9,COC(=O)N[C@H](C(=O)N1CCC[C@H]1c1nc2ccc(-c3ccc(-c4ccc5nc([C@@H]6CCCN6C(=O)[C@@H](NC(=O)OC)C(C)C)[nH]c5c4)c4c3ccn4C)cc2[nH]1)C(C)C [Compound 133],< 1
10,COC(=O)N[C@H](C(=O)N1CCC[C@H]1c1nc2ccc(-c3ccc(-c4ccc5nc([C@@H]6CCCN6C(=O)[C@@H](NC(=O)OC)C(C)C)[nH]c5c4)c4ccccc34)cc2[nH]1)C(C)C [Compound 59],< 1
11,COC(=O)N[C@H](C(=O)N1CCC[C@H]1c1nc2ccc(-c3cnc(-c4ccc5nc([C@@H]6CCCN6C(=O)[C@@H](NC(=O)OC)C(C)C)[nH]c5c4)cn3)cc2[nH]1)C(C)C [Compound 64],< 1
12,COC(=O)N[C@H](C(=O)N1CCC[C@H]1c1nc2ccc(-c3ccc(-c4ccc5nc([C@@H]6CCCN6C(=O)[C@@H](NC(=O)OC)C(C)C)[nH]c5c4)c(OC(F)(F)F)c3)cc2[nH]1)C(C)C [Compound 129],< 1
13,COC(=O)N[C@H](C(=O)N1CCC[C@H]1c1nc2ccc(-c3ccc(-c4ccc5nc([C@@H]6CCCN6C(=O)[C@@H](NC(=O)OC)C(C)C)[nH]c5c4)nc3)cc2[nH]1)C(C)C [Compound 44],< 1

# Same assay, conditions: Hepatitis C virus, 72 h; replicon RNA by real time PCR (Taqman), day 3; numeric, unit inferred; read-out: Biological Activity (EC90, HCV replicon)
row,Compound,EC90 [nM]
1,C#CC[C@@H](NC(=O)OC)C(=O)N1CCC[C@H]1c1nc2ccc(-c3ccc(-c4ccc5nc([C@@H]6CCCN6C(=O)[C@@H](CC#C)NC(=O)OC)[nH]c5c4)s3)cc2[nH]1 [Compound 99],0.2
2,COC(=O)N[C@H](C(=O)N1CCC[C@H]1c1nc2ccc(-c3cc(C)c(-c4ccc5nc([C@@H]6CCCN6C(=O)[C@@H](NC(=O)OC)C(C)C)[nH]c5c4)s3)cc2[nH]1)C(C)C [Compound 103],0.005
3,COC(=O)N[C@H](C(=O)N1CCC[C@H]1c1nc2cc(F)c(-c3ccc(-c4cc5[nH]c([C@@H]6CCCN6C(=O)[C@@H](NC(=O)OC)C(C)C)nc5cc4F)s3)cc2[nH]1)C(C)C [Compound 115],0.003

# Same assay, conditions: Hepatitis C virus, 72 h; replicon RNA by real time PCR (Taqman), day 3; numeric; read-out: Biological Activity (EC90, HCV replicon)
row,Compound,EC90 [nM]
1,CCCCc1cc(-c2ccc3nc([C@@H]4CCCN4)[nH]c3c2)sc1-c1ccc2nc([C@@H]3CCCN3)[nH]c2c1 [Compound 72],26
2,COC(=O)N[C@H](C(=O)N1CCC[C@H]1c1ncc(-c2ccc(-c3ccc4nc([C@@H]5CCCN5C(=O)[C@@H](NC(=O)OC)C(C)C)[nH]c4c3)[nH]c2=O)[nH]1)C(C)C [Compound 91],6

# System: HCV replicon genotype 1b c16
# Assay: HCV replicon assay, genotype 1b c16
# Format: cell-based
# Settings: Hepatitis C virus
# Method: (§1) To measure cell-based anti-HCV activity of selected compounds of the present invention, replicon cells were seeded at 5000 cells/well in 96-well collagen I-coated Nunc plates in the presence of the test compound. Various concentrations of test compound, typically in 10 serial 2-fold dilutions, were added to the assay mixture, with the starting concentration ranging from 250 μM to 1 μM. The final concentration of DMSO was 0.5%, fetal bovine serum was 5%, in the assay media. Cells were harvested on day 3 by the addition of 1× cell lysis buffer (Ambion cat #8721). The replicon RNA level was measured using real time PCR (Taqman assay). The amplicon was located in 5B. The PCR primers were: 5B.2F, ATGGACAGGCGCCCTGA (SEQ. ID NO. 1); 5B.2R, […] (SEQ. ID NO. 2); the probe sequence was FAM-labeled CACGCCATGCGCTGCGG (SEQ. ID NO. 3). GAPDH RNA was used as endogenous control and was amplified in the same reaction as NS5B (multiplex PCR) using primers and VIC-labeled probe recommended by the manufacturer (PE Applied Biosystem). […] Alternatively, to quantitate the absolute amount of replicon RNA, a standard curve was established by including serially diluted T7 transcripts of replicon RNA in the Taqman assay. […]
row,Compound,EC50 [nM]
1,COC(=O)N[C@H](C(=O)N1CCC[C@H]1c1nc2ccc(-c3ccc(-c4ccc5nc([C@@H]6CCCN6C(=O)[C@@H](NC(=O)OC)C(C)C)[nH]c5c4)c(OC(F)(F)F)c3)cc2[nH]1)C(C)C [Compound 129],0.003

# System: HCV replicon genotype 1a 1A7
# Assay: HCV replicon assay, genotype 1a 1A7
# Format: cell-based
# Settings: Hepatitis C virus
# Method: as §1
row,Compound,EC50 [nM]
1,COC(=O)N[C@H](C(=O)N1CCC[C@H]1c1nc2ccc(-c3ccc(-c4ccc5nc([C@@H]6CCCN6C(=O)[C@@H](NC(=O)OC)C(C)C)[nH]c5c4)c(OC(F)(F)F)c3)cc2[nH]1)C(C)C [Compound 129],0.05
